Assay results as given in patent publication US8524770B2, “Wool care composition” (Director General, Defence Research & Development …, priority 2009, dated 2013).

Key:
[1] = system: clothes moths; conditions: Abbott & Billings 1935, Journal of Economic Entomology; cited from earlier work
[2] = system: clothes moths; assay: Protection of woollen articles / repellency against clothes moths; format: in vivo; conditions: confirmed by the present inventors
Text: Conventionally naphthalene or Paradichlorobenzene is known in the art to be used to protect woollen and fur-feather lined articles from insect damage during their storage. But these above compounds are ineffective against clothes moths and thus unable to provide protection to the woollen items as established by Abbott & Billings of USA in 1935 and published their work in the Journal of Economic Entomology on page 493-495 as entitled “Further work showing that Paradichlorobenzene, Naphthalene and cedar oils are ineffective as repellents against clothes moth”. The ineffectiveness of the naphthalene balls in protection of woollen articles from insect pests is also confirmed by the present inventors.

| SMILES | Effectiveness as repellent against clothes moths [1] | Protection of woollen articles from insect pests [2] |
| --- | --- | --- |
| Clc1ccc(Cl)cc1 [Paradichlorobenzene] | ineffective | – |
| c1ccc2ccccc2c1 [naphthalene] | ineffective | ineffectiveness |
